Source: a melting point compilation (Tetko et al.)
Non-standard residues stand in square brackets, D forms with d. Residues, ends and D or L forms follow the SMILES beside them. ξ: configuration not given here. *: point of attachment. X5 = CCC(=O)OC1(C(=O)C(O)O*)CCC2C3CC(C)C4=CC(=O)C=CC4(C)C3C(O)CC21C; X1 = COC1=CC(=O)N(C(=O)C(O*)C(C)C)C1Cc1ccccc1; Cyclohexanecarbonyl = O=C(C1CCCCC1)*; ξNMe2Val = CC(C)C(C(=O)*)N(C)C; NMeV = CN[CH](C(=O)O)C(C)C; Cbz = O=C(OCc1ccccc1)*; Pentanoyl = CCCCC(=O)*; Bn = c1ccc(C*)cc1

| SMILES | melting point [°C] |
| --- | --- |
| [C-]#[N+]CS(=O)c1ccccn1 (configuration not stated) | 91 to 93 |
| CCc1nc2c(N)nc3cc(OCCCc4cccnc4)ccc3c2s1 | 172 to 173 |
| CCCCC(=O)NC(C)C(=O)NC(C)C(=O)N1CCCC1C(=O)NC(C(=O)OC(O)C(=O)C1(OC(=O)CC)CCC2C3CC(C)C4=CC(=O)C=CC4(C)C3C(O)CC21C)C(C)C (configuration not stated) (Pentanoyl-AAPV-X5; configuration not given here) | 142 |
| COCCOCCOc1cc2c3cc(OCCOCCOC)c(OCCOCCOC)cc3c3cc(OCCOCCOC)c(OCCOCCOC)cc3c2cc1OCCOCCOC | 54 |
| CS(=N)(=O)c1ccc(-n2cnnn2)cc1 (configuration not stated) | 180 to 181 |
| COC1=CC(=O)N(C(=O)C(OC(=O)C2CCCN2C(=O)C2CCCN2C(=O)C(C(C)C)N(C)C(=O)C(NC(=O)C(C(C)C)N(C)C)C(C)C)C(C)C)C1Cc1ccccc1 (configuration not stated) (ξNMe2Val-V[NMeV]PP-X1; configuration not given here) | 143 to 148 |
| CC(=O)OC1C(O)C(C)OC(OC2C(OC(=O)C3CCC4C(C3)OC3(CC(OC(=O)C=Cc5ccccc5)C(C)CO3)C43CO3)OC(C)C(O)C2OC(C)=O)C1O (configuration not stated) | 125 to 127 |
| COc1cc2c(cc1I)C(=O)CC2 | 129 to 130 |
| Nc1ncnc2c1c(I)cn2COC(O)CCO (configuration not stated) | 177 to 178 |
| CCCc1c(CC[Si](Cl)(Cl)Cl)c(CC[Si](Cl)(Cl)Cl)c(CC[Si](Cl)(Cl)Cl)c(CC[Si](Cl)(Cl)Cl)c1CC[Si](Cl)(Cl)Cl | 211 to 216 |
| [C-]#[N+]c1c(C)cccc1C(C)(C)C | 60 to 62 |
| C=C1C(n2ccc(NC(=O)CCCCCCCCCCCCCCCCC)nc2=O)OC(COC(=O)CCCCCCCCCCCCCCCCC)C1(O)C(=O)CCCCCCCCCCCCCCCCC (configuration not stated) | 92 to 96 |
| CC(C)c1oncc1S(=O)(=O)c1ccc(O)cc1 | 129 to 131 |
| CC1(C)CC(OC(=O)CCCCCCCCC(=O)OC2CC(C)(C)N(OC3CCCCCCCCCCC3)C(C)(C)C2)CC(C)(C)N1OC1CCCCCCCCCCC1 | 70 to 78 |
| CCOC(=O)N1c2cc(OC)c(OC)cc2C(=O)C(=CN)C1C (configuration not stated) | 92 to 95 |
| CC(C)(C)c1cc2c(c(C(C)(C)C)c1)OP(OP1Oc3c(cc(C(C)(C)C)cc3C(C)(C)C)Cc3cc(C(C)(C)C)cc(C(C)(C)C)c3O1)Oc1c(cc(C(C)(C)C)cc1C(C)(C)C)C2 | 249 to 252 |

| SMILES | melting point [°C] |
| --- | --- |
| CC(=O)OCC=C(C)CCC=C(C)CCC=C(C)CCC=C(C)CCC=C(C)CCC=C(C)CCC=C(C)CCC=C(C)CCC=C(C)CCC=C(C)CCC=C(C)C | 36 to 37 |
| CCNC(Cc1cc(I)c(Oc2cc(I)c(O)c(I)c2)c(I)c1)C(=O)O (configuration not stated) | 191 to 193 |
| CCOC(=O)C(C)c1cc(C)c(C(=O)c2ccc(Cl)cc2)n1C (configuration not stated) | 88 to 90 |
| CCC(CC)Nc1cc(C)nc(Oc2c(C)cc(C)cc2C)c1[N+](=O)[O-] | 160 to 162 |
| CCC(CO)Sc1nc(Nc2ccc(S(C)(=N)=O)cc2)ncc1Br (mixture of isomers) | 175 to 180 |
| CC(C)(C)c1cc(-c2cc(C(C)(C)C)cc(C(C)(C)C)c2Op2oc3c(C(C)(C)C)cc(C(C)(C)C)cc3c3cc(C(C)(C)C)cc(C(C)(C)C)c3o2)c(O)c(C(C)(C)C)c1 | 245 to 250 |
| CC(=O)N1C(C)(C)CC(OC(=O)C(Cc2cc(C)c(O)c(C(C)(C)C)c2)(Cc2cc(C)c(O)c(C(C)(C)C)c2)C(=O)OC2CC(C)(C)N(C(C)=O)C(C)(C)C2)CC1(C)C | 189 |
| CCCCCCCCCCCCCCCCCCCCCCCCCC(C)=CCCC(C)=CCCC(C)=CCCC(C)=CCCC(C)=CCCC(C)=CCCC(C)=CCCC(C)=CCCC(C)=CCOC(=O)C1CCCCC1 | 34 to 35 |
| OP(=S)(C(F)(F)C(F)(F)C(F)(F)C(F)(F)C(F)(F)C(F)(F)C(F)(C(F)(F)F)C(F)(F)F)C(F)(F)C(F)(F)C(F)(F)C(F)(F)C(F)(F)C(F)(F)C(F)(C(F)(F)F)C(F)(F)F | > 300 |
| O=[N+]([O-])c1cc(Sc2ccc(-c3c(S(=O)c4ccc(Cl)c([N+](=O)[O-])c4-c4ccc(Sc5ccc(Cl)c([N+](=O)[O-])c5)cc4)ccc(Cl)c3[N+](=O)[O-])cc2)ccc1Cl | 144 to 146 |
| CC12CC3CC(C)(C1)CC(N)(C3)C2 | 153 |
| N#Cc1cccc(N2CCOCC2)c1 | 105 |
| CCO/N=C(\C)[C@H]1CC[C@H]2[C@@H]3CCC4=CC(=O)CC[C@]4(C)[C@H]3CC[C@]12C | 127 to 129 |
| CCSC(C)CC1CC(=O)C(=C(CC)NOCC=CCl)C(=O)C1 (configuration not stated) | < 25 |
| CCOC(=O)OC1=C(c2c(C)cc(C)cc2C)C(=O)NC12CCN(N(C)C)CC2 | 162 to 166 |

Next, values leading:

| melting point [°C] | SMILES |
| --- | --- |
| 54 to 56 | CCCCCCCCCCCCCCCCCCN(CCCCCCCCCCCCCCCCCC)CCCN(CCOC(=O)Nc1ccccc1)CCOC(=O)Nc1ccccc1 |
| 159 to 161 | COc1ccc(C(c2ccccc2)C(C)(C(=O)C(C)(C(c2ccccc2)c2ccc(OC)c(OC)c2)N2C(=O)c3ccccc3C2=O)N2C(=O)c3ccccc3C2=O)cc1OC (configuration not stated) |
| 186 to 189 | COc1cc(C(=O)Oc2ccc3c(OC(=O)c4ccc(OCc5ccccc5)c(OC)c4)c4cc(OC(=O)c5ccc(OCc6ccccc6)c(OC)c5)ccc4cc3c2)ccc1OCc1ccccc1 |
| 197 | Cc1c(NC(=O)c2cccc(OCC(=O)NCCNC(=O)COc3cccc(C(=O)O)c3)c2)c2ccccn2c1C(=O)c1ccc(NC(=O)C(F)(F)F)c(C(=O)OCc2ccccc2)c1 |
| 112 | Cc1ccc2cccc(OCc3c(Cl)ccc(S(=O)(=O)N4CCC[C@H]4C(=O)NC4CCN(C(=O)CCN(C=NC(=O)OC(C)(C)C)NC(=O)OC(C)(C)C)CC4)c3Cl)c2n1 |
| 86 to 89 | CC(C)CCCC(C)C1CCC2C3CC=C4CC(N(CCCNC(=O)CCNC(=O)CCCCCNc5ccc([N+](=O)[O-])c6nonc56)S(=O)(=O)c5ccccc5[N+](=O)[O-])CCC4(C)C3CCC12C (configuration not stated) |
| 54 to 55 | CCCCCCCCCCCCCCCCCCOc1ccc(OCCCOc2ccc(OCc3ccccc3)cc2)c(C(=O)N(CC(=O)OCC)CC(=O)OCC)c1 |
| 166 to 167 | CC(=O)Oc1ccc(-c2cnc(N(S(=O)(=O)Cc3ccc(I)cc3)S(=O)(=O)Cc3ccc(I)cc3)c(Cc3ccccc3)n2)cc1 |
| 128 | CCN(C(=O)NC)C1C(Cl)=C(OC2=C(Cl)C(N(CC)C(=O)NC)C(c3ccccc3C(F)(F)F)([N+](=O)[O-])C=C2)C=CC1(c1ccccc1C(F)(F)F)[N+](=O)[O-] (configuration not stated) |
| 144 to 146 | COc1cc(OC)c(/C=C/C(c2ccc(OC)c(NS(=O)(=O)C(F)(F)F)c2)S(=O)(=O)C(/C=C/c2c(OC)cc(OC)cc2OC)c2ccc(OC)c(NS(=O)(=O)C(F)(F)F)c2)c(OC)c1 (configuration not stated) |
| 290 | FC(F)(F)c1ccc(-c2cc(-c3ccc(C(F)(F)F)cc3C(F)(F)F)c3ccc4c(-c5ccc(C(F)(F)F)cc5C(F)(F)F)cc(-c5ccc(C(F)(F)F)cc5C(F)(F)F)c5ccc2c3c54)c(C(F)(F)F)c1 |
| 114 to 117 | O=C(OCCCCCCOC1CCCCO1)c1ccc(Oc2c3c(c(Oc4ccc(C(=O)OCCCCCCOC5CCCCO5)cc4)c4ccccc24)C(=O)c2ccccc2C3=O)cc1 (configuration not stated) |
| 54.5 | C=CC(=O)OCCCCCCOc1ccc(C(=O)Oc2ccc(OC(=O)c3ccc(OCCCCCCOC(=O)C=C)cc3)c(C(=O)OCCCCCCCCOc3ccc(C#N)cc3)c2)cc1 |
| 187 to 189 | COC(=O)c1ccc([C@H](C)NC(=O)CN2CCN(CC(=O)N[C@@H](C)c3ccccc3)CCN(Cc3ccn(-c4ccc5c(=O)c6cc(C(C)(C)C)ccc6oc5n4)n3)CCN(CC(=O)N[C@@H](C)c3ccccc3)CC2)cc1 |
| 158 to 160 | COC(=O)C(CC(C)C)NC(=O)C(Cc1ccc(OCc2ccccc2)cc1)NC(=O)C(COCc1ccccc1)NC(=O)C(Cc1c[nH]c2ccccc12)NC(=O)C1CCCCC1 (Cyclohexanecarbonyl-WS(Bn)Y(Bn)L-OMe; configuration not given here) |
| 200 to 202 | CC(C)(C)c1cc(C(=O)OCCN(CCOC(=O)c2cc(C(C)(C)C)c(O)c(C(C)(C)C)c2)C(=O)c2cc(C(C)(C)C)c(O)c(C(C)(C)C)c2)cc(C(C)(C)C)c1O |
| 66 to 76 | CCCCCCCCCCCCc1cc2c(cc1CCCCCCCCCCCC)C(=O)c1c(c(O)c3cc(CCCCCCCCCCCC)c(CCCCCCCCCCCC)cc3c1O)C2=O |
| 193 to 194 | CN(C(=O)Cc1c(-c2ccccc2)c2ccccc2c(=O)n1C)c1cc(C(F)(F)F)cc(C(F)(F)F)c1 |
| 295 to 298 | COc1cc2c3c(ccc4c5ccc6c7c(cc(OC)c(c1c34)c75)-c1ccccc1C6C#C[Si](C(C)C)(C(C)C)C(C)C)C(C#C[Si](C(C)C)(C(C)C)C(C)C)c1ccccc1-2 (configuration not stated) |
| 150 to 152 | CC(C)[C@H](NC(=O)N(C)Cc1nc2ccccc2[nH]1)C(=O)N[C@@H](Cc1ccccc1)C[C@H](O)[C@H](Cc1ccccc1)NC(=O)[C@@H](NC(=O)N(C)Cc1nc2ccccc2[nH]1)C(C)C |
| 256 to 258 | CCCCCCCS(=O)(=O)c1cc2c3cc(S(=O)(=O)CCCCCCC)c(S(=O)(=O)CCCCCCC)cc3c3cc(S(=O)(=O)CCCCCCC)c(S(=O)(=O)CCCCCCC)cc3c2cc1S(=O)(=O)CCCCCCC |
| 238 to 242 | CNC(=O)OC(COc1ccc(C(C)(C)c2ccc(OCC(CN3C(=O)NC4(CC(C)(C)NC(C)(C)C4)C3=O)OC(=O)NC)cc2)cc1)CN1C(=O)NC2(CC(C)(C)NC(C)(C)C2)C1=O (configuration not stated) |
| 219 to 221 | O=C(Oc1ccc2c(OC(=O)c3ccc(OCc4ccccc4)cc3)c3cc(OC(=O)c4ccc(OCc5ccccc5)cc4)ccc3cc2c1)c1ccc(OCc2ccccc2)cc1 |
| 104 | CC(C)OCCOc1ccc(CCCOc2nn(C)cc2CC(=O)O)c(Oc2ncc(C(F)(F)F)cc2Cl)c1 |
| 221 to 223 | COC(=O)C(CC(C)C)NC(=O)C(Cc1ccccc1)NC(=O)C(Cc1ccc(O)cc1)NC(=O)C(CO)NC(=O)C(Cc1c[nH]c2ccccc12)NC(=O)OCc1ccccc1 (configuration not stated) (Cbz-WSYFL-OMe; configuration not given here) |
| 52 to 54 | CCCCCCCCCCCCCCCC(=O)OCC(CSCC(NC(=O)OCc1cccc2c1Cc1ccccc1-2)C(=O)OC(C)(C)C)OC(=O)CCCCCCCCCCCCCCC (mixture of isomers) |
